Values joined by “and” are separate entries in the source; they are usually repeats but may differ in a detail not shown here. Equal entries are not always repeated.
Columns and labels:
Assay type in all cases: in vivo, human
[1] = test system: patients with symptomatic oHCM; assay: SEQUOIA-HCM substudy: post-exercise oxygen uptake recovery (VO2Rec)
Protocol: Patients were randomized 1:1 to aficamten or placebo for 24 weeks with a primary endpoint of pVO2. For this analysis, VO2Rec delay was measured as the time taken after exercise cessation for VO2 to decline by >0%, 12.5% (t12.5%), 25%, or 50% of pVO2. Change in t12.5% from baseline (BL) to week 24 (W24) was the primary endpoint. […]

[2] = test system: patients with symptomatic oHCM; assay: SEQUOIA-HCM secondary analysis: clinical response / responder analyses (NYHA class, KCCQ-CSS, hemodynamic response, exercise capacity)
Source text: A secondary objective of this trial was to evaluate the effect of aficamten on patient health status, as determined by changes in the Kansas City Cardiomyopathy Questionnaire-Clinical Summary Score (KCCQ-CSS) from baseline to Week 12 and Week 24. A further secondary objective of this trial was to evaluate the effect of aficamten on New York Heart Association (NYHA) Functional Classification, as determined by the proportion of patients with ≥1 class improvement in NYHA Functional Class from baseline to Week 12 and Week 24. An exploratory objective of this trial was to evaluate the effect of aficamten on exercise capacity and functional class, as determined by comparing with baseline, the number of patients at Week 24 achieving either (1) change from baseline of ≥1.5 mL/kg/min in pVO2 AND ≥1 class improvement in NYHA Functional Class; or (2) Change from baseline of ≥3.0 mL/kg/min in pVO2 AND no worsening of NYHA Functional Class. A further exploratory objective of this trial was to evaluate the effect of aficamten on patient response over time, as determined by (1) […]; (2) proportion of patients with resting LVOT-G<30 mmHg, post-Valsalva LVOT-G<50 mmHg, […]; and (3) proportion of patients with resting LVOT-G<30 mmHg, post-Valsalva LVOT-G<50 mmHg, […] Secondary Analysis of the Results of the SEQUOIA-HCM Study. In a sub-analysis of the results of Example 8 (i.e, the results of the SEQUOIA-HCM Study) we sought to comprehensively characterize the broad clinical impact of aficamten with respect to responder analyses across a number of clinically relevant, patient-centric outcome domains. […] For patients with missing data, the last available observation (week 8 to week 20) was used. Patients with no available data on or after week 8 were classified as not meeting the efficacy criteria. Patients were then classified according to the number of efficacy outcome definitions that they met. Baseline characteristics were summarized using means and standard deviations or median and interquartile for continuous normal and skewed variables, as well as counts and percentages for categorical variables. These characteristics were compared across groups using trend tests (linear regression, chi-squared tests of trend, and Cuzick's non-parametric trend tests). Proportions of patients meeting each efficacy outcome definition were compared between treatment groups using chi-squared tests, and linear regression was used to assess the treatment effect of aficamten vs placebo on change in efficacy outcomes while also adjusting for baseline value, CPET modality at baseline and beta blocker use at baseline. No adjustments were made for multiple comparisons. Two-sided p-values less than 0.05 were considered statistically significant.

[3] = test system: patients with symptomatic oHCM; assay: SEQUOIA-HCM cardiovascular magnetic resonance (CMR) substudy; details: Echo Measurements; CMR Cohort N = 57 (Aficamten N = 25); Week 24
[4] = test system: patients with symptomatic oHCM; assay: SEQUOIA-HCM: EQ-5D-5L index and Visual Analogue Scale quality of life
Source text: A further exploratory objective of this trial was to evaluate the effect of aficamten on health status and health-related quality of life as measured by PRO questionnaire, as determine by changes from baseline to Week 24 in individual responses to the EuroQol 5-dimension 5-level instrument (EQ-5D-5L). Improved exercise capacity, disease-specific quality-of-life (QoL), and hemodynamics in patients with obstructive hypertrophic cardiomyopathy (oHCM). Participants underwent blinded dose escalation over 6 weeks and were treated for 24 weeks followed by 4-week washout. EQ-5D-5L index (ranges from 0 to 1) and the Visual Analogue Scale (VAS; from 0 to 100) was measured at baseline and weeks 0, 2, 4, 8, 12, 16, 20, 24, with higher scores indicating better QoL. Aficamten treatment effect on EQ-5D-5L was estimated using linear regression (specific study visits) and mixed effects regression (overall treatment effect) using all follow-up data through week 24, with model adjustments for baseline EQ-5D-5L score and randomization stratification variables.

[5] = LSM treatment difference vs placebo
[6] = change from baseline to week 24
[7] = 142 patients treated with aficamten
[8] = of the 101 aficamten symptomatic responders
[9] = overall treatment effect through week 24

`CCc1nc(-c2ccc3c(c2)CC[C@H]3NC(=O)c2cnn(C)c2)no1` [aficamten, (R)—N-(5-(5-ethyl-1,2,4-oxadiazol-3-yl)-2,3-dihydro-1H-inden-1-yl)-1-methyl-1H-pyrazole-4-carboxamide] was tested, and the “Peak VO2” value ([1]; Baseline) was 18.4 mL/min/kg, the “VO2 recovery 12.5%” value ([1]; Baseline) was 45 s and the “VO2 recovery 25%” value ([1]; Baseline) was 66 s. For the same compound, the “VO2 recovery 50%” value ([1]; Baseline) was 115 s, the VO2 recovery delay ([1]; Baseline) was 19 s and the “Peak VO2, Adjusted Δ” value [1, 5] was 1.7 mL/min/kg. For the same compound, the “VO2 recovery 12.5%, Adjusted Δ” value [1, 5] was -8 s, the “VO2 recovery 25%, Adjusted Δ” value [1, 5] was -7 s and the “VO2 recovery 50%, Adjusted Δ” value [1, 5] was -8 s. For the same compound, the “VO2 recovery delay, Adjusted Δ” value [1, 5] was -4 s, the “Peak VO2” value ([1]; Week 24) was 20.2 mL/min/kg and the “VO2 recovery 12.5%” value ([1]; Week 24) was 38 s. For the same compound, the “VO2 recovery 25%” value ([1]; Week 24) was 60 s, the “VO2 recovery 50%” value ([1]; Week 24) was 107 s and the VO2 recovery delay ([1]; Week 24) was 15 s. The “improvement in pVO2” value ([1]; aficamten group, W24) was 9%, the “improvement in t12.5% (VO2Rec delay)” value ([1]; aficamten group, W24) was 18% and the “improving t12.5% by ≥15 seconds, NNT” value ([1]; aficamten vs placebo) was 4.8. For the same compound, the “improving t12.5% by ≥15 seconds, OR” value ([1]; aficamten vs placebo) was 3.68, the “Peak VO2, Absolute Δ” value [1, 6] was 1.8 mL/min/kg and the “VO2 recovery 12.5%, Absolute Δ” value [1, 6] was -7 s. For the same compound, the “VO2 recovery 25%, Absolute Δ” value [1, 6] was -6 s, the “VO2 recovery 50%, Absolute Δ” value [1, 6] was -8 s and the “VO2 recovery delay, Absolute Δ” value [1, 6] was -4 s. For the same compound, the “patients with moderate to large KCCQ-CSS improvement of ≥10 to <20” value ([2]; 142 patients on aficamten) was 27%, the “patients with no change or a decrease in KCCQ-CSS score (<5 points)” value ([2]; 142 patients on aficamten) was 37% and the “patients with small KCCQ-CSS improvement of ≥5 to <10” value ([2]; 142 patients on aficamten) was 13%. For the same compound, the “patients with very large KCCQ-CSS change of ≥20” value ([2]; 142 patients on aficamten) was 22%, the “patients improved from NYHA class II to I” value [2, 7] was 39% and the “patients improved from NYHA class III to I” value [2, 7] was 11%. For the same compound, the “patients improved from NYHA class III to II” value [2, 7] was 9%, the “patients with no change in NYHA class” value [2, 7] was 38% and the “patients worsened from NYHA class II to class III” value [2, 7] was 2%. For the same compound, the “>1.5 mL/kg/min increase in pVO2 and ≥1 NYHA class improvement or ≥3.0 mL/kg/min increase in pVO2 and no worsening of NYHA class” value ([2]; Aficamten (N = 142)) was 60 (42) n (%), the “≥1.5 mL/kg/min increase in pVO2 and ≥1 NYHA class improvement” value ([2]; Aficamten (N = 142)) was 44 (31) n (%) and the “≥3.0 mL/kg/min increase in pVO2 and no worsening of NYHA class” value ([2]; Aficamten (N = 142)) was 37 (26) n (%). For the same compound, the “≥3.0 mL/kg/min increase in pVO2 and ≥1 NYHA class improvement” value ([2]; Aficamten (N = 142)) was 21 (15) n (%), the “responder endpoint, difference vs. placebo” value ([2]; Week 24) was 28.7% and the “responder endpoint, number needed to treat (NNT)” value ([2]; Week 24) was 3. The “patients with improvement of ≥1 NYHA functional class and/or ≥10 point increase in KCCQ-CSS (symptomatic response)” value ([2]; aficamten group, week 2) was 36%, the “patients with complete hemodynamic response (rest gradient <30 mmHg and Valsalva gradient <50 mmHg)” value ([2]; aficamten group, week 8) was 70% and the “patients with improvement of ≥1 NYHA functional class and/or ≥10 point increase in KCCQ-CSS (symptomatic response)” value ([2]; aficamten group, week 8) was 58%. For the same compound, the “patients achieving ≥1 of the 4 prespecified clinical response measures” value ([2]; aficamten group, week 24) was 97%, the “patients improved in 2 clinical response measures” value ([2]; aficamten group, week 24) was 26% and the “patients improved in 3 clinical response measures” value ([2]; aficamten group, week 24) was 39%. The “patients improved in all 4 clinical response measures” value ([2]; aficamten group, week 24) was 23%, the “patients who achieved one clinical response measure” value ([2]; aficamten group, week 24) was 9% and the “patients with improvement in exercise capacity, pVO2 of ≥1.5 mL/kg/min” value ([2]; aficamten group, week 24) was 47%. For the same compound, the “patients with improvement of ≥1 NYHA functional class and/or ≥10 point increase in KCCQ-CSS (symptomatic response)” value ([2]; aficamten group, week 24) was 71%, the “patients meeting responder endpoint (pVO2 ≥1.5 mL/kg/min and ≥1 NYHA improvement, or pVO2 ≥3.0 mL/kg/min and no worsening in NYHA)” value ([2]; aficamten, Week 24) was 42% and 42.3% and the “patients who achieved pVO2 of ≥1.5 mL/kg/min and ≥1 improvement in NYHA class” value ([2]; aficamten, Week 24) was 31%. For the same compound, the “patients with pVO2 ≥3.0 mL/kg/min and no worsening in NYHA” value ([2]; aficamten, Week 24) was 26%, the “patients who resolved their symptoms completely (NYHA class I)” value ([2]; end of the treatment period) was “close to half of patients” and the “symptomatic responders with improvement in both NYHA and KCCQ” value [2, 8] was 51%. For the same compound, the “symptomatic responders with ≤10 point improvement in KCCQ but ≥1 improvement in NYHA functional class” value [2, 8] was 31%, the “symptomatic responders with ≥10 point improvement in KCCQ-CSS and no improvement in NYHA class” value [2, 8] was 18% and the “Common Rate Difference (vs. Placebo)” value ([2]; pVO2/NYHA composite responder) was 29. The “LV Mass Index” value [3] was 120 ± 32 g/m2, the “QoL after treatment withdrawal at 24 weeks compared with placebo” value ([4]; Index and VAS) was “worsened” and the “improvement of EQ-5D-5L VAS versus placebo” value [4, 9] was 2.8 points. The “improvement of EQ-5D-5L index versus placebo” value [4, 9] was 0.026.

Reference: US20250295639A1, “METHODS FOR TREATING HEART DISEASES” (Cytokinetics, Incorporated, priority 2024, published 2025)
